Results from ChEMBL document CHEMBL1126337, “Cholecystokinin analogues: The ergopeptine alkaloids as models of the active conformation of CCK” (Bioorg Med Chem Lett, 1992).
Peptide text beside a SMILES is read from it. * marks the point of attachment. NHPhenethyl = c1ccc(CCN*)cc1; Boc = CC(C)(C)OC(=O)*

Legend:
[1] = molecular target: T1, Cholecystokinin receptor type A (Mus musculus, UniProt O08786); assay: Concentration of compound required to inhibit binding of [125I]J-BH-CCK-8 radioligand to CCKA in mouse pancreatic membranes; format: cell membranes
T1 sequence (O08786 whole entry): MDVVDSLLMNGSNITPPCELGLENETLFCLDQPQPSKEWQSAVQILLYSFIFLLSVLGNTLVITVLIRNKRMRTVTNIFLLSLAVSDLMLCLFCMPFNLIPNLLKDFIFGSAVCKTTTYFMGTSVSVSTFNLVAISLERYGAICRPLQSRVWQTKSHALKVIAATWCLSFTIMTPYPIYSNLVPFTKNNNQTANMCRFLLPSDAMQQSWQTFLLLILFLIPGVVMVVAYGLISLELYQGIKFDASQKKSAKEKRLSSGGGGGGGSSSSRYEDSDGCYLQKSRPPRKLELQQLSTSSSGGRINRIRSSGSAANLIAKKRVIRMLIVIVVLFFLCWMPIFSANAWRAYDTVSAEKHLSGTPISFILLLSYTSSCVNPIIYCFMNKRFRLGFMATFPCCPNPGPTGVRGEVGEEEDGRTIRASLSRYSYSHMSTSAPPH

[2] = molecular target: T2, Gastrin/cholecystokinin type B receptor (Mus musculus, UniProt P56481); assay: Concentration of compound required to inhibit binding of [125I]J-BH-CCK-8 radioligand to CCKB in mouse fore brain membranes; format: cell membranes, Membrane
T2 sequence (P56481 whole entry): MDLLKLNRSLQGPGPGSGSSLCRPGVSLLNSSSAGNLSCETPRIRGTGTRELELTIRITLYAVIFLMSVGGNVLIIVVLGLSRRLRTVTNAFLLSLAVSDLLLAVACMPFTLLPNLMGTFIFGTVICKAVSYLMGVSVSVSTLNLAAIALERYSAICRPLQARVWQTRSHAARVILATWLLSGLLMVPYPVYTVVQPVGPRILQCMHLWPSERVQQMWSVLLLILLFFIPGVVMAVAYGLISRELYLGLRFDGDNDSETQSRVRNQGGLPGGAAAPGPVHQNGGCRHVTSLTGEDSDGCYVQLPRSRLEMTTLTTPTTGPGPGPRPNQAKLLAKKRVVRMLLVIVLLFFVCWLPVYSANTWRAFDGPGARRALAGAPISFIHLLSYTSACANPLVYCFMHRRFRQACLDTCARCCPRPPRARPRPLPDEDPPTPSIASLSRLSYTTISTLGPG

Row | Compound | IC50 [1] [µM] | IC50 [2] [µM]
1 | C[C@H](NC(=O)C1C=C2c3cccc4[nH]cc(c34)CC2N(C)C1)C(=O)NCCc1ccccc1 (stereo not given in full) | 12 | > 80
2 | CC(C)C[C@H](NC(=O)[C@H](Cc1c[nH]c2ccccc12)NC(=O)OC(C)(C)C)C(=O)N[C@@H](CC(=O)O)C(=O)NCCc1ccccc1 (Boc-Trp-Leu-Asp-NHPhenethyl) | 3.5 | 0.35
3 | CN1C[C@H](C(=O)N[C@]2(C)O[C@@]3(O)[C@@H]4CCCN4C(=O)[C@H](Cc4ccccc4)N3C2=O)C[C@@H]2c3cccc4[nH]cc(c34)C[C@H]21 [DIHYDROERGOTAMINE] | > 80 | 23
4 | CC(C)C[C@H]1C(=O)N2CCC[C@H]2[C@]2(O)O[C@](NC(=O)[C@@H]3C=C4c5cccc6[nH]cc(c56)C[C@H]4N(C)C3)(C(C)C)C(=O)N12 [ERGOCRYPTINE] | > 80 | > 80
5 | CN1C[C@H](C(=O)N[C@]2(C)O[C@@]3(O)[C@@H]4CCCN4C(=O)[C@H](Cc4ccccc4)N3C2=O)C=C2c3cccc4[nH]cc(c34)C[C@H]21 [ERGOTAMINE] | 34 | 17
